Earlier results on one molecule are cited in patent US6977253B2, “Methods for the treatment of bipolar disorder using carbamazepine” (Shire Pharmaceutical Development Inc., priority 2003, dated 2005).

SMILES strings stand for the structures.

The data set relates to acute mania. The settings on record: controlled carbamazepine monotherapy trials in acute mania; McElroy and Keck 2000.

On to `NC(=O)N1c2ccccc2C=Cc2ccccc21` [carbamazepine, 5-carbamoyl-5H-dibenz(b,f)azepine], for which the Pooled response rate is recorded as 52%.
